Consider 63 molecules from a melting point compilation (Tetko et al.; mined from patent text by program, amines drawn as free bases though some values may be those of a salt).

Residues, ends and D or L forms follow the SMILES beside them.

What is called melting point is the temperature, or range, at which the solid turns liquid. As to `CS(=O)(=O)NC1CCCOc2ccc([N+](=O)[O-])cc21` (stereo not drawn), the melting point lay within 96 to 98 °C.

On to `Cc1cc2cc(NC(=O)Nc3ccc(Cl)cc3)ccc2[nH]1`, for which the melting point fell in the range of 257 to 260 °C.

As for `NC(=O)C1CCCc2c(C(=O)c3ccccc3)cccc21` (stereo not drawn), the melting point is 146 to 148 °C.

Consider `COc1ccc2c(c1OC)CCN(CCc1ccc([N+](=O)[O-])cc1)C2`, for which the melting point is 97 °C.

As for `CCCCc1nnc(SCc2ccc(OC)cc2)n1Cc1ccc(OC(C(=O)O)c2ccccc2)cc1` (stereo not drawn), the melting point was 78 to 79 °C.

Take `CCCOc1ccc(N(C)S(=O)(=O)c2ccc(C)cc2)c([N+](=O)[O-])c1`: the melting point was 93 to 94 °C.

On to `O=C(O)CCCCOc1ccc(N2CCN(c3ccncc3)CC2)cc1`, for which the melting point is 237 to 241 °C.

In turn, `COCCCn1ccc2c3c(c(-c4ccccc4Cl)cc21)C(=O)NC3=O` came in with a melting point of 171 to 172 °C.

Molecule `O=c1[nH]nc2c3c(cccc13)N=C(CN1CCCNCC1)N2` registered a melting point of 147 to 149 °C.

In turn, `CC(C)(C)c1cc(N(C(=O)CCC(=O)O)c2cccc(C(=O)O)c2)cc(C(C)(C)C)c1O` displayed a melting point of 182 to 183 °C.

On to `C[C@H](Cn1nnc2ccccc21)n1cnc2cc3c(=O)n(C4CC4)nnc3cc2c1=O`, for which the melting point lay in the range of 103 to 105 °C.

Take `Cc1cc(Cl)c2[nH]nc(-c3ccc(Cl)cc3)c2n1`: the melting point was in the range of 243 to 245 °C.

The molecule `NS(=O)(=O)c1ccc(-c2ccccc2-c2ccc(Cl)cc2)cc1` gave a melting point of 206 to 207 °C.

`Cc1ccnc(C(=O)c2[nH]c3cc(Cl)ccc3c2NC(=O)CN(C)C)c1`: the melting point was 193 to 194 °C.

Take `CNCC1Cc2cc(Cl)cc(C3CCCCC3)c2O1` (stereo not drawn): the melting point was in the range of 125 to 128 °C.

For `C=Cn1cc(C(=O)OCC)c(=O)c2cc(F)c(Cl)cc21`, the melting point was 146 to 149 °C.

`NC(=O)c1snc(-c2cccc(C(F)(F)F)c2)c1N` registered a melting point of 124 °C.

Consider `Cc1ccnc(N2CCN(CCCCC3Sc4ccccc4NC3=O)CC2)c1` (stereo not drawn), for which the melting point is 119 °C.

Regarding `CCC(Oc1ncn(-c2ccc(Cl)c(Cl)c2)n1)C(=O)O` (stereo not drawn), the melting point was in the range of 232 to 234 °C.

`CN1CCN(c2cccc3c(S(=O)(=O)c4ccccc4)c[nH]c23)CC1`: the melting point is 160 to 162 °C.

As for `CCCCCCc1cc2c(cc1S)C(=O)CC2`, the melting point was 100 °C.

In the case of `Cc1nn(C)c(C)c1-c1cccc(OC2SCC(O)C(O)C2O)c1` (stereo not drawn), the melting point is 95 °C.

`O=CNc1nc(C(=NOCC(=O)OC(c2ccccc2)c2ccccc2)C(=O)O)cs1`: the melting point is 143 to 151 °C.

Molecule `Nc1cc(N2CCOCC2)ccc1[N+](=O)[O-]` yielded a melting point of 177 to 178 °C.

In turn, `O=c1cc(-c2ccccc2)c2cc(C(c3ccccc3)n3ccnc3)ccc2[nH]1` (stereo not drawn) yielded a melting point of 253 °C.

`NC(=O)NC(=O)NCc1ccc(CNC(=O)[C@@H](CCCNC(N)=N[N+](=O)[O-])NC(=O)C(c2ccccc2)c2ccccc2)cc1` gave a melting point of 214 to 218 °C.

Turning to `COc1cc2sc(C(=O)Cl)c(Cl)c2cc1OC`, the melting point was 191 to 199 °C.

In the case of `CCCCc1nc(C(O)CCC)c(C(N)=O)n1Cc1ccc(-c2ccccc2C(=O)O)cc1` (stereo not drawn), the melting point was above 110 °C.

As for `CCCCCCCCC(C(=O)O)C(O)(CC(=O)O)C(=O)O` (stereo not drawn), the melting point is 65.8 to 66.7 °C.

Regarding `COC(=O)c1cc2cc(C(=O)c3cccs3)c(Cl)c(Cl)c2o1`, the melting point fell in the range of 184 to 187 °C.

`CC1(C)NC(=O)N(c2ccc(F)c(C(F)(F)F)c2)C1=O` yielded a melting point of 111 to 114 °C.

`CN(C)c1ccc2cc(Cl)cnc2c1C#N` yielded a melting point of 174 °C.

With `Cc1ccc2cc(-c3cccs3)ccc2n1`, the melting point was 87 °C.

Molecule `COc1ccc(-c2nc(-c3ccc(OS(=O)(=O)O)cc3)cs2)cc1OC` displayed a melting point of 248 to 249 °C.

In turn, `CC1(C)CCC(N2c3ccccc3Oc3ccccc32)=N1` gave a melting point of 148 to 150 °C.

`Cc1ncnn1C[Si](C)(C)c1ccc(-c2ccccc2)cc1` returned a melting point of 95 to 98 °C.

The molecule `CC(=O)N1CCN(c2ccc(O)cc2Br)CC1` came in with a melting point of 212 to 214 °C.

In turn, `O=C1N[C@H](Cc2ccc(C(F)(F)F)cc2)[C@@H](c2ccc(F)cc2)O1` (racemic) came in with a melting point of 83 to 84 °C.

On to `CCOC(=O)NNC(=O)Cl`, for which the melting point lay within 77 to 80 °C.

For `C=CCc1nc(Cl)nc(Cl)c1OC`, the melting point lay in the range of 61 to 62 °C.

On to `CC1(C)CCC(=O)Nc2ccc(Nc3ncc(Cl)c(N[C@@H]4CCCC[C@H]4NS(C)(=O)=O)n3)cc21`, for which the melting point fell in the range of 170 to 185 °C.

`COC(=O)C(c1ccc(OCCNC(=O)C2Cc3ccccc3N2S(=O)(=O)c2ccc(-c3cc(C(F)(F)F)ccc3Cl)cc2)cc1)C(C)C` (stereo not drawn) registered a melting point of 68 to 75 °C.

`C=CCOn1cnc2c(Cl)nc(N)nc21` had a melting point of 137 to 139 °C.

With `COc1ccc(N2Cc3nc(CO)nn3-c3cccnc32)cc1`, the melting point lay in the range of 190 to 194 °C.

The molecule `COc1ccc2oc(C(=O)C34CC5CC(CC(C5)C3)C4)cc2c1` registered a melting point of 113 to 115 °C.

Molecule `CCc1cc(S)n2nccc2n1` registered a melting point of 178 to 180 °C.

The molecule `Cc1cc(-n2ccc(OCCCO)cc2=O)sc1C(=O)NCc1cccc(F)c1` had a melting point of 135 to 137 °C.

Molecule `CC(C)(C)OC(=O)N1[C@@H](Cc2cccc([Si](C)(C)C)c2)C(=O)O[C@H](c2ccccc2)[C@@H]1c1ccccc1` came in with a melting point of 88 to 90 °C.

For `O=C1NC(=O)C(=Cc2ccc(OC[C@@H]3CCCN3c3ccccn3)cc2)S1`, the melting point worked out at 164 °C.

Molecule `COc1cc(C)cc(S(=O)(=O)c2cccc(F)c2C#N)c1` showed a melting point of 160 to 162 °C.

`COC(=O)Nc1cn2nc(OCc3cc(OC)ccc3OC)ccc2n1` had a melting point of 228 to 230 °C.

On to `CC1=C(C(=O)OC(C)C)C(c2cccc([N+](=O)[O-])c2)C(C(=O)C(C)S(=O)(=O)NC(C)C)=C(C)N1` (stereo not drawn), for which the melting point lay in the range of 117 to 120 °C.

Regarding `CSC(=S)NCc1c(Cl)cccc1Cl`, the melting point is 47 °C.

For the molecule `CS(=O)(=O)c1ccc(-c2cc(-c3ccc(F)cc3)n3c2CCC3)cc1`, the melting point is 176 to 179 °C.

Regarding `CC(O)C#Cc1ncn2c1CN(C)C(=O)c1ccccc1-2` (stereo not drawn), the melting point was 161 to 162 °C.

Molecule `CCOC(=O)C1=C(COCc2nnnn2CC(N)=O)NC(C)=C(C(=O)OC)C1c1ccccc1Cl` (stereo not drawn) displayed a melting point of 97 to 100 °C.

In the case of `c1ccc(CC2CCN(Cc3ccn(-c4ccccc4)c3)CC2)cc1`, the melting point was in the range of 159 to 161 °C.

`CC1(C)NC(=O)N(CC(CS(=O)(=O)c2ccc(-c3cccc(CC#N)c3)cc2)N(O)C=O)C1=O` (stereo not drawn): the melting point lay in the range of 186 to 189 °C.

Consider `CC(=O)N(C)c1cc(OCc2ccccc2)c2nc(C)n(C)c2c1`, for which the melting point was 144 to 149 °C.

`COc1ccc(-c2nc(-c3ncc4c(n3)CCCC4)ccc2C)nc1` registered a melting point of 157 to 158 °C.

`Cc1c(O)cccc1C(=O)N[C@@H](Cc1ccccc1)[C@H](O)C(=O)N1CSC(C)(C)[C@H]1C(=O)NCc1cccc(OC(F)(F)F)c1` had a melting point of 102 to 105 °C.

`CC(C)=NNC(=O)NCCCN(C)CCCNC(=O)NN=C(C)C` had a melting point of 113 to 114 °C.

`COC(=O)C(Cc1ccccc1)NC(=O)C(CC(=O)O)NC(=O)C1CCCN1` (stereo not drawn) (H-Pro-Asp-Phe-OMe; configuration not given here): the melting point lay in the range of 238 to 242 °C.
